Test system: K24384-001-R-PDC complex spheroid growth
Experiment: Anticancer human tumor K24384-001-R-PDC patient-derived pancreatic adenocarcinoma cell line growth inhibition [AhR]
Conditions: for IC50: curve of first compound; for viability, T/C: stronger effect = lower value
Procedure, shortened: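 Complex tumor spheroids co-cultured with HUVEC and human MSC stroma; AhR antagonists tested in combination with standard-of-care and investigational agents. Top concentration at or near clinical Cmax (else 10 microM), half-log dilutions; growth expressed as percent test/control.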

[1] = second compound 0.1 µM, first compound 0.0316 µM
[2] = second compound 0.1 µM, first compound 0.1 µM
[3] = second compound 0.1 µM, first compound 0.316 µM
[4] = second compound 0.1 µM, first compound 1 µM
[5] = second compound 0.1 µM, first compound 3.16 µM
[6] = second compound 0.1 µM, first compound 10 µM
[7] = second compound 0.316 µM, first compound 0.0316 µM
[8] = second compound 0.316 µM, first compound 0.1 µM
[9] = second compound 0.316 µM, first compound 0.316 µM
[10] = second compound 0.316 µM, first compound 1 µM
[11] = second compound 0.316 µM, first compound 3.16 µM
[12] = second compound 0.316 µM, first compound 10 µM
[13] = second compound 1 µM, first compound 0.0316 µM
[14] = second compound 1 µM, first compound 0.1 µM
[15] = second compound 1 µM, first compound 0.316 µM
[16] = second compound 1 µM, first compound 1 µM
[17] = second compound 1 µM, first compound 3.16 µM
[18] = second compound 1 µM, first compound 10 µM
[19] = second compound 3.16 µM, first compound 0.0316 µM
[20] = second compound 3.16 µM, first compound 0.1 µM
[21] = second compound 3.16 µM, first compound 0.316 µM
[22] = second compound 3.16 µM, first compound 1 µM
[23] = second compound 3.16 µM, first compound 3.16 µM
[24] = second compound 3.16 µM, first compound 10 µM
[25] = second compound 10 µM, first compound 0.0316 µM
[26] = second compound 10 µM, first compound 0.1 µM
[27] = second compound 10 µM, first compound 0.316 µM
[28] = second compound 10 µM, first compound 1 µM
[29] = second compound 10 µM, first compound 3.16 µM
[30] = second compound 10 µM, first compound 10 µM
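Throughout, for viability, T/C: percent of DMSO vehicle-treated spheroid viability set as 100%.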

IC50 (second compound 0.1 µM)	IC50 (second compound 0.316 µM)	IC50 (second compound 1 µM)	IC50 (second compound 3.16 µM)	IC50 (second compound 10 µM)	SMILES	viability, T/C [1]	viability, T/C [2]	viability, T/C [3]	viability, T/C [4]	viability, T/C [7]	viability, T/C [8]	viability, T/C [9]	viability, T/C [10]	viability, T/C [13]	viability, T/C [14]	viability, T/C [15]	viability, T/C [16]	viability, T/C [19]	viability, T/C [20]	viability, T/C [21]	other results
> 10000 nM	> 10000 nM	> 10000 nM	> 10000 nM	< 31.6 nM	CC(C)c1c(-c2ccccc2)nc2c(C#N)c[nH]n2c1=O + Cc1cncc(-c2nc(NCCc3c[nH]c4ccccc34)c3ncn(C(C)C)c3n2)c1	108%	110%	106%	102%	104%	101%	115%	95.7%	108%	110%	94.5%	95.1%	83.7%	91.4%	82.6%	viability, T/C [5]: 85.6%; viability, T/C [6]: 85.8%; viability, T/C [11]: 87.5%; viability, T/C [12]: 77.3%; viability, T/C [17]: 99%; viability, T/C [18]: 69.1%; viability, T/C [22]: 61.9%; viability, T/C [23]: 70.4%; viability, T/C [24]: 77.3%; viability, T/C [25]: 7.78%; viability, T/C [26]: 6.78%; viability, T/C [27]: 7.75%; viability, T/C [28]: 8.55%; viability, T/C [29]: 7.71%; viability, T/C [30]: 10.2%
73.9 nM	93.3 nM	90.5 nM	55.2 nM	< 3.16 nM	CC1COCCN1c1cc(-c2ccnn2C)c2ccnc(-c3ccn[nH]3)c2n1 (stereo not given) + Cc1cncc(-c2nc(NCCc3c[nH]c4ccccc34)c3ncn(C(C)C)c3n2)c1	65.3%	46.1%	25.7%	22.2%	89.1%	46.4%	31.8%	20.5%	87.3%	46.9%	24.8%	24.6%	69%	30.1%	27.3%	viability, T/C (second compound 0.1 µM, first compound 0.00316 µM): 88.3%; viability, T/C (second compound 0.1 µM, first compound 0.01 µM): 81.3%; viability, T/C (second compound 0.316 µM, first compound 0.00316 µM): 95.6%; viability, T/C (second compound 0.316 µM, first compound 0.01 µM): 95.8%; viability, T/C (second compound 1 µM, first compound 0.00316 µM): 94.5%; viability, T/C (second compound 1 µM, first compound 0.01 µM): 104%; viability, T/C (second compound 3.16 µM, first compound 0.00316 µM): 73%; viability, T/C (second compound 3.16 µM, first compound 0.01 µM): 88.3%; viability, T/C [22]: 27.7%; viability, T/C (second compound 10 µM, first compound 0.00316 µM): 7.24%; viability, T/C (second compound 10 µM, first compound 0.01 µM): 7.46%; viability, T/C [25]: 8.32%; viability, T/C [26]: 5.4%; viability, T/C [27]: 4.59%; viability, T/C [28]: 6.27%
4410 nM	2820 nM	2820 nM	1940 nM	< 31.6 nM	COc1ccc([C@@H](O)c2cc(-c3ncnc4cc(N5CCOCC5)ccc34)c(F)cc2Cl)nn1 + Cc1cncc(-c2nc(NCCc3c[nH]c4ccccc34)c3ncn(C(C)C)c3n2)c1	88%	93.3%	93.2%	68.5%	109%	106%	86.2%	68.4%	84.1%	94.5%	118%	96.7%	76.8%	98.2%	71.1%	viability, T/C [5]: 57.8%; viability, T/C [6]: 38.4%; viability, T/C [11]: 48%; viability, T/C [12]: 36.6%; viability, T/C [17]: 44.9%; viability, T/C [18]: 33.9%; viability, T/C [22]: 54.7%; viability, T/C [23]: 50.7%; viability, T/C [24]: 31.9%; viability, T/C [25]: 9.83%; viability, T/C [26]: 8.38%; viability, T/C [27]: 6.49%; viability, T/C [28]: 8.45%; viability, T/C [29]: 9.55%; viability, T/C [30]: 13.7%

— PubChem BioAssay AID1919009 (Molecular Pharmacology Branch, DTP, NCI, 2023)
